Laboratory results reported in paper PMC8145110, “Design, Synthesis, and Antibacterial Screening of Some Novel Heteroaryl-Based Ciprofloxacin Derivatives as DNA Gyrase and Topoisomerase IV Inhibitors” (Pharmaceuticals, 2021).
Converted amounts (≈) assume the structure as drawn.

Columns and labels:
E. coli = assay: MIC, two-fold serial dilution, E. coli; type: cell-based; details: Escherichia coli; read-out: Minimum Inhibitory Concentration (MIC), E. coli
Method: (§1) Table 2, using the reference drug ciprofloxacin, was presented with the MICs (minimal inhibitory concentrations) of these compounds against tested bacteria. […] The nature of aromatic substitution in the oxadiazole moiety tends to be correlated with higher antibacterial effects and the activity increased with (Ar) in the order of 2-pyridyl ≥ 3-pyridyl > 4-pyridyl > 2-Cl-Ph > 2-naphthyl.
(§2) On 96-well microtiter plates and […] of fresh bacterial culture of a single McFarland unit overnight, a double serial dilution of each compound […] in sterile standard saline was prepared for every single source well. Ciprofloxacin antibiotic (5 mg/mL^−1) and normal saline were included as standard references in each assay (see Appendix A).
(§3) In 96-well microtiter plates and […] of fresh bacterial culture of a single McFarland unit overnight, a double serial dilution of each compound […] in sterile standard saline was prepared for every single source well. Ciprofloxacin antibiotic (5 mg/mL^−1) and normal saline were included as standard reference in each assay. The plates were incubated at 37 °C overnight. As an indicator of bacterial growth, […] of p-iodonitrotetrazolium violet (INT) was added to each well and incubated at 37 °C for 30 min. […] The colorless tetrazolidium salt acts as an electron accepter and is reduced to a red colored formazan product by biological activity organisms. Where bacterial growth was inhibited, the solution in the well remained clear after incubation with INT.

S. aureus = assay: MIC, two-fold serial dilution, S. aureus; type: cell-based, Staphylococcus aureus; details: for MIC: Staphylococcus aureus, read-out: Minimum Inhibitory Concentration (MIC), S. aureus
Method: as §1, §2, §3

B. subtilis = assay: MIC, two-fold serial dilution, B. subtilis; type: cell-based; details: Bacillus subtilis; read-out: Minimum Inhibitory Concentration (MIC), B. subtilis
Method: as §1, §2, §3

P. aeruginosa = assay: MIC, two-fold serial dilution, P. aeruginosa; type: cell-based; details: Pseudomonas aeruginosa; read-out: Minimum Inhibitory Concentration (MIC), P. aeruginosa
Method: as §1, §2, §3

E. coli topoisomerase IV = molecular target: T1, E. coli topoisomerase IV (Escherichia coli, UniProt P0AFI2+P20083); assay: E. coli topoisomerase IV assay; type: biochemical; details: read-out: RA (%), residual activity of E. coli Topo IV
T1 construct: purchased Inspiralis
Method: (§4) IC50 assay determination was carried out in accordance with the procedures previously stated (see Appendix A).
(§5) Inhibitory activities were determined in an assay from Inspiralis on streptavidin-coated 96-well microtiter plates from Thermo scientific Pierce. […] After washing off the unbound oligonucleotide, the enzyme test was performed. […] After that, the TF buffer (50 mM NaOAc with pH 5.0, 50 mM NaCl and 50 mM MgCl2) was added to terminate the enzymatic reaction. After additional incubation for 30 min at rt, during which biotin-oligonucleotide-plasmid triplex was 19 formed, the unbound plasmid was washed off using TF buffer and SybrGOLD in T10 buffer (10 mM Tris HCl with pH 8.0 and 1 mM EDTA) was added. […] Initial screening was done at 100 or 10 μM concentration of inhibitors. […] GraphPad Prism software was used to calculate the IC50 values. The result is given as the average value of three independent measurements. […] Determination of inhibitory activities on E. coli and S. aureus Topoisomerase IV IC50 values were determined in an assay from Inspiralis on streptavidin-coated 96-well microtiter plates from Thermo scientific Pierce. […] After washing off the unbound oligonucleotide, the enzyme test was performed. The reaction volume of 30 μL in buffer (40 mM HEPES KOH with pH 7.6, 100 mM potassium glutamate, 10 mM magnesium acetate, 10 mM DTT, 1 mM ATP, 0.05 mg/mL albumin) contained 1.5 U of topoisomerase IV from E. coli or S. aureus, 0.75 μg of pNO1 supercoiled plasmid, and 3 μL solution of the inhibitor in DMSO (10%) and Tween 20 (0.008%). […] After additional incubation for 30 min at rt, during which triplex (biotin-oligonucleotide-plasmid) was formed, the unbound plasmid was washed off using TF buffer and SybrGOLD in T10 buffer (10 mM Tris HCl with pH 8.0 and 1 mM EDTA) was added. […] Initial screening was done at 100 or 10 μM concentration of inhibitors. […] GraphPad Prism software was used to calculate the IC50 values. The result is given as the average value of three independent measurements.

E. coli DNA gyrase = molecular target: T2, E. coli DNA gyrase (Escherichia coli, UniProt P0AES4+P0AES6); assay: E. coli DNA gyrase assay; type: biochemical; details: read-out: RA (%), residual activity of E. coli DNA Gyrase
T2 construct: purchased Inspiralis
Method: as §4, §5

[1] = Cell viability assay (MTT); type: cell-based; set-up: dose or concentration left out as unconfirmed; details: human, MCF-10A mammary gland epithelial cells, four days
Method: A human mammary gland epithelial cell line (MCF-10A) was used to conduct a cell viability assay. Compounds 2–6 were incubated with MCF-10A cells for four days, and the viability of the cells was determined using the 3-(4,5-dimethylthiazol-2-yl)-2,5-diphenyltetrazolium bromide (MTT) assay. All compounds had no cytotoxic effects, and the viability of the cells was greater than 85% for most of the compounds examined […], as shown in Table 4.
MTT Assay was performed to investigate the effect of compounds 2–6 on the viability of mammary epithelial cells (MCF-10A) (see Appendix A).

T1 sequence (P0AFI2 whole entry): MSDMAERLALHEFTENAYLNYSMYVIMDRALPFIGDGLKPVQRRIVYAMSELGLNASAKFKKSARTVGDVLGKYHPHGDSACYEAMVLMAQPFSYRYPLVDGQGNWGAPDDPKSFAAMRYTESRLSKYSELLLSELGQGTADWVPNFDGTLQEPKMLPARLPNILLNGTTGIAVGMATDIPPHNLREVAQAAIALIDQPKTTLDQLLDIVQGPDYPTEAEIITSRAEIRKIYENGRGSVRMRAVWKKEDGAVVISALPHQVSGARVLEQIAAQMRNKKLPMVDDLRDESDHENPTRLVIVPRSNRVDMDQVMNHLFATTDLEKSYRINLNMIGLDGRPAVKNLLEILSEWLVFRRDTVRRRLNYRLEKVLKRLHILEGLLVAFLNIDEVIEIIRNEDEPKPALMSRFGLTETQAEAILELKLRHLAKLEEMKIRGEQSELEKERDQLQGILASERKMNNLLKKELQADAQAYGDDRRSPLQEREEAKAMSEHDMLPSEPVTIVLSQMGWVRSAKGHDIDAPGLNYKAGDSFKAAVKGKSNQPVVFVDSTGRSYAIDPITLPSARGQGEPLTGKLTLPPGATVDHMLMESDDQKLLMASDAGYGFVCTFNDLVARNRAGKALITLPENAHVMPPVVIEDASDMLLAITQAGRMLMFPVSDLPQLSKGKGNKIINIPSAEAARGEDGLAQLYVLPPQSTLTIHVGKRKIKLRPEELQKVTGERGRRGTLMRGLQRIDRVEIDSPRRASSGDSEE
T1 sequence (P20083 whole entry): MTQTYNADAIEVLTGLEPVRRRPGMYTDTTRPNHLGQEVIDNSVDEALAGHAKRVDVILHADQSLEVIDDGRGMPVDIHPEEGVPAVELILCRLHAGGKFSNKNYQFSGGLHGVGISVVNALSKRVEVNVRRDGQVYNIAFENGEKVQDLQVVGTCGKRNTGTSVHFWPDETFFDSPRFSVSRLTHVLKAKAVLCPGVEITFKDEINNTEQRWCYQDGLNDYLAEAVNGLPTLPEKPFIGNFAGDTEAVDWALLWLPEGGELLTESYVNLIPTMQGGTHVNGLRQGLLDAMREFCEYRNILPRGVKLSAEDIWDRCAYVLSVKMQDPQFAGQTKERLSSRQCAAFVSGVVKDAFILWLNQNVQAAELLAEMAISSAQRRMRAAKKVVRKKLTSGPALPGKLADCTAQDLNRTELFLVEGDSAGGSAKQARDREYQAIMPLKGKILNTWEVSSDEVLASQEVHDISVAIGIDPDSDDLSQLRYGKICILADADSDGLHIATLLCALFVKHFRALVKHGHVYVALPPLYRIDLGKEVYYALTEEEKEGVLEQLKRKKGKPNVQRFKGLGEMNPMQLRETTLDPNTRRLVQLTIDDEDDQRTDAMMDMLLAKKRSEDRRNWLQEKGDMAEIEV

| Compound | melting point [°C] | also measured |
| --- | --- | --- |
| O=C(O)c1cn(C2CC2)c2cc(N3CCNCC3)c(F)cc2c1=O [Ciprofloxacin] |  | MIC (E. coli): 0.06 µg/mL (≈ 0.181 µM); MIC, S. aureus (S. aureus): 0.03 µg/mL (≈ 0.0905 µM); MIC (S. aureus): 0.03 µg/mL (≈ 0.0905 µM); MIC (B. subtilis): 0.01 µg/mL (≈ 0.0302 µM); MIC (P. aeruginosa): 0.06 µg/mL (≈ 0.181 µM) |
| O=C(O)c1cn(C2CC2)c2cc(N3CCN(Cn4nc(-c5ccccc5Cl)oc4=S)CC3)c(F)cc2c1=O [Compound 2, 7-{4-[5-(2-Chloro-phenyl)-2-thioxo-[1,3,4]oxadiazol-3-ylmethyl]-piperazin-1-yl}-1-cyclopropyl-6-fluoro-4-oxo-1,4-dihydro-quinoline-3-carboxylic acid] | 226 | MIC (E. coli): 0.125 µg/mL (≈ 0.225 µM); remaining activity at 1 µM (E. coli topoisomerase IV): 89%; remaining activity at 1 µM (E. coli DNA gyrase): 57%; MIC, S. aureus (S. aureus): 0.062 µg/mL (≈ 0.112 µM); MIC (S. aureus): 0.162 µg/mL (≈ 0.291 µM); MIC (B. subtilis): 0.125 µg/mL (≈ 0.225 µM); viability at 4 days [1]: 87%; MIC (P. aeruginosa): 0.125 µg/mL (≈ 0.225 µM) |
| O=C(O)c1cn(C2CC2)c2cc(N3CCN(CN4C(=O)SC(=Cc5ccc(Cl)cc5)C4=O)CC3)c(F)cc2c1=O [Compound 17, 7-{4-[5-(4-Chloro-benzylidene)-2,4-dioxo-thiazolidin-3-ylmethyl]-piperazin-1-yl}-1-cyclopropyl-6-fluoro-4-oxo-1,4-dihydro-quinoline-3-carboxylic acid] | 244 |  |
| COc1ccc(C=C2SC(=O)N(CN3CCN(c4cc5c(cc4F)c(=O)c(C(=O)O)cn5C4CC4)CC3)C2=O)cc1 [Compound 18, 1-Cyclopropyl-6-fluoro-7-{4-[5-(4-methoxy-benzylidene)-2,4-dioxo-thiazolidin-3-ylmethyl]-piperazin-1-yl}-4-oxo-1,4-dihydro-quinoline-3-carboxylic acid] | 251 |  |
| O=C(O)c1cn(C2CC2)c2cc(N3CCN(CN4C(=O)SC(=Cc5ccccc5O)C4=O)CC3)c(F)cc2c1=O [Compound 19, 1-Cyclopropyl-6-fluoro-7-{4-[5-(2-hydroxy-benzylidene)-2,4-dioxo-thiazolidin-3-ylmethyl]-piperazin-1-yl}-4-oxo-1,4-dihydro-quinoline-3-carboxylic acid] | 244 |  |
| O=C(O)c1cn(C2CC2)c2cc(N3CCN(CN4C(=O)c5ccccc5C4=O)CC3)c(F)cc2c1=O [Compound 20, 1-Cyclopropyl-7-[4-(1,3-dioxo-1,3-dihydro-isoindol-2-ylmethyl)-piperazin-1-yl]-6-fluoro-4-oxo-1,4-dihydro-quinoline-3-carboxylic acid] | 241 |  |
| O=C(O)c1cn(C2CC2)c2cc(N3CCN(CN4C(=O)CCC4=O)CC3)c(F)cc2c1=O [Compound 21, 1-Cyclopropyl-7-[4-(2,5-dioxo-pyrrolidin-1-ylmethyl)-piperazin-1-yl]-6-fluoro-4-oxo-1,4-dihydro-quinoline-3-carboxylic acid] | 214 |  |

Continued, in another order:

| melting point [°C] | Compound | also measured |
| --- | --- | --- |
| 228 | O=C(O)c1cn(C2CC2)c2cc(N3CCN(Cn4nc(-c5ccccc5)oc4=S)CC3)c(F)cc2c1=O [Compound 1, 1-Cyclopropyl-6-fluoro-4-oxo-7-[4-(5-phenyl-2-thioxo[1,3,4]oxadiazol-3-yl-methyl)-piperazin-1-yl]-1,4-dihydro-quinoline-3-carboxylic acid] |  |
| 288 | O=C(O)c1cn(C2CC2)c2cc(N3CCN(Cn4nc(-c5ccccc5)n(-c5ccccc5)c4=S)CC3)c(F)cc2c1=O [Compound 7, 1-Cyclopropyl-7-[4-(3,4-diphenyl-5-thioxo-4,5-dihydro-[1,2,4]triazol-1-ylmethyl)-piperazin-1-yl]-6-fluoro-4-oxo-1,4-dihydro-quinoline-3-carboxylic acid] |  |
| 214 | O=C(O)c1cn(C2CC2)c2cc(N3CCN(Cn4nc(-c5ccccc5Cl)n(-c5ccccc5)c4=S)CC3)c(F)cc2c1=O [Compound 8, 7-{4-[3-(2-Chloro-phenyl)-4-phenyl-5-thioxo-4,5-dihydro-[1,2,4]triazol-1-ylmethyl]-piperazin-1-yl}-1-cyclopropyl-6-fluoro-4-oxo-1,4-dihydro-quinoline-3-carboxylic acid] |  |
| 262 | O=C(O)c1cn(C2CC2)c2cc(N3CCN(Cn4nc(-c5ccc6ccccc6c5)n(-c5ccccc5)c4=S)CC3)c(F)cc2c1=O [Compound 9, 1-Cyclopropyl-6-fluoro-7-[4-(3-naphthalen-2-yl-4-phenyl-5-thioxo-4,5-dihydro-[1,2,4]triazol-1-ylmethyl)-piperazin-1-yl]-4-oxo-1,4-dihydro-quinoline-3-carboxylic acid] |  |
| 270 | O=C(O)c1cn(C2CC2)c2cc(N3CCN(Cn4nc(-c5ccccn5)n(-c5ccccc5)c4=S)CC3)c(F)cc2c1=O [Compound 10, 1-Cyclopropyl-6-fluoro-4-oxo-7-[4-(4-phenyl-3-pyridin-2-yl-5-thioxo-4,5-dihydro-[1,2,4]triazol-1-ylmethyl)-piperazin-1-yl]-1,4-dihydro-quinoline-3-carboxylic acid] |  |
| 280 | O=C(O)c1cn(C2CC2)c2cc(N3CCN(Cn4nc(-c5cccnc5)n(-c5ccccc5)c4=S)CC3)c(F)cc2c1=O [Compound 11, 1-Cyclopropyl-6-fluoro-4-oxo-7-[4-(4-phenyl-3-pyridin-3-yl-5-thioxo-4,5-dihydro-[1,2,4]triazol-1-ylmethyl)-piperazin-1-yl]-1,4-dihydro-quinoline-3-carboxylic acid] |  |
| 227 | O=C(O)c1cn(C2CC2)c2cc(N3CCN(Cn4nc(-c5ccncc5)n(-c5ccccc5)c4=S)CC3)c(F)cc2c1=O [Compound 12, 1-Cyclopropyl-6-fluoro-4-oxo-7-[4-(4-phenyl-3-pyridin-4-yl-5-thioxo-4,5-dihydro-[1,2,4]triazol-1-ylmethyl)-piperazin-1-yl]-1,4-dihydro-quinoline-3-carboxylic acid] |  |
| 217 | O=C(O)c1cn(C2CC2)c2cc(N3CCN(CN4C(=O)C(c5ccccc5)(c5ccccc5)NC4=S)CC3)c(F)cc2c1=O [Compound 13, 1-Cyclopropyl-6-fluoro-4-oxo-7-[4-(5-oxo-4,4-diphenyl-2-thioxo-imidazolidin-1-ylmethyl)-piperazin-1-yl]-1,4-dihydro-quinoline-3-carboxylic acid] |  |
| 234 | NN1C(=S)N(CN2CCN(c3cc4c(cc3F)c(=O)c(C(=O)O)cn4C3CC3)CC2)C(=O)C1(c1ccccc1)c1ccccc1 [Compound 14, 7-[4-(3-Amino-5-oxo-4,4-diphenyl-2-thioxo-imidazolidin-1-ylmethyl)-piperazin-1-yl]-1-cyclopropyl-6-fluoro-4-oxo-1,4-dihydro-quinoline-3-carboxylic acid] |  |
| 230 | N#CN=C1NC(c2ccccc2)(c2ccccc2)C(=O)N1CN1CCN(c2cc3c(cc2F)c(=O)c(C(=O)O)cn3C2CC2)CC1 [Compound 15, 7-[4-(2-Cyanoimino-5-oxo-4,4-diphenyl-imidazolidin-1-ylmethyl)-piperazin-1-yl]-1-cyclopropyl-6-fluoro-4-oxo-1,4-dihydro-quinoline-3-carboxylic acid] |  |
